Reference: patent US12174172B2, “Method for evaluating the efficacy of a composition in reducing the effects of cancer therapeutics on skin” (Johnson & Johnson Consumer Inc., priority 2019, dated 2024)
“Also recorded” adds a separate entry of the source. Marks after values point to notes of the source that are not given here.

Key:
desmoglein-1 (DSG1) = experiment: 3D micro-epidermis model (EpiScreen): desmoglein-1 immunostaining; assay type: cell-based, human
Protocol: (§1) To assess the effects of such therapy molecules on the epidermis, keratinocytes were grown in the presence of kinase inhibitors during 3 days with high calcium concentration to induce keratinocyte differentiation and generate a 3D-stratified differentiated epidermis. Drug impact on the epidermis development was assessed via different keratinocyte markers including: • Ki-67, an universally expressed protein among proliferating cells and absent in the quiescent cells; • Filaggrin, a filament-associated protein that binds to keratin fibers and is a marker of terminal differentiation; • Desmoglein-1, a component of desmosomes and differentiation marker expressed in all epidermal layer above the basal layer; and • Involucrin, an early differentiation marker expressed in the spinous and granular layers and a protein precursor of the epidermal cornified envelope.
(§2) Human epidermal keratinocytes cells (HPEKs) from a juvenile donor (CellnTec, Switzerland) are cultured in flasks in proliferation medium. Keratinocytes are seeded at passage 6 into EpiScreen™ (Abzena, Cambridge, UK) plates containing collagen 1 coated disc micropatterns (CYTOO, Grenoble, France). Four hours later, unattached cells are washed off and a high calcium medium is added to induce keratinocytes differentiation. The day after, keratinocytes are treated with screening compounds, and Trichostatin A is added at 0.3 μM as an internal positive control. After three days of treatment, micro-epidermises are fixed with a formalin solution 10% for 30 minutes, then permeabilized with 0.1% Triton. Several immunostainings are performed: actin (Acti-Stain 555, PHDH1, Cytoskeleton), nuclei (Hoechst, H3570, Invitrogen), and one biomarker of interest per well either anti-involucrin (HPA055211, Sigma), anti-filaggrin (HPA030189, Sigma) or anti-desmoglein-1 (HPA022128, Sigma). Antibodies are added overnight at 4° C. before staining with secondary antibody, anti-rabbit 488 (711-545-152, Jackson) for 2 hours at room temperature.
(§3) Images of each well are acquired with the Operetta HCS platform (Perkin Elmer, Waltham, MA, USA) using a ×10 objective in confocal mode in eight z-planes from 2 μm to 44 μm in steps of 6 μm in each of the 3 channels: actin, nuclei, and one biomarker of interest. The first step of the image analysis consists in detecting micro-epidermis structures on the first z-plane by segmenting the actin staining. Micro-epidermis structures are validated based on several area and roundness min and max criteria. Then, the area of each biomarker staining is measured inside the valid micro-epidermis masks through each z-plane. For all homogeneous biomarker staining, their intensity through the different planes is measured.
(§4) The actin network of each micro-epidermis is analyzed in each z-plane in order to determine the average 3D structure edges. The biomarker intensity is measured in each z-plane for each structure, and then averaged with the other results generated in the same well. Based on the data generated in the two previous steps, an average 3D reconstruction image is generated. It consists of a meshwork that delimits the structure edges, and a color scaled volume that corresponds to the biomarkers distribution and expression.
The effect of 8 oncology molecules, selected from first generation EGFRi and pan-kinase inhibitors which mostly target VEGFR and second and third generation therapies targeting main mutations relating to first generation treatment resistance, were assessed in vitro using a 3D micro-epidermis model. The drug incubation concentrations (3, 10, 30, 100 nM) were selected to reflect the clinically relevant (unbound) drug exposures (Table 2). The drug impact was assessed by analysis of tissue size and keratinocyte proliferation using Ki-67 staining and keratinocyte differentiation using filaggrin, desmoglein-1 and involucrin staining. […]

involucrin (IVL) = experiment: 3D micro-epidermis model (EpiScreen): involucrin immunostaining; assay type: cell-based, human
Protocol: as §1, §2, §3, §4
The effect of 8 oncology molecules, selected from first generation EGFRi and pan-kinase inhibitors which mostly target VEGFR and second and third generation therapies targeting main mutations relating to first generation treatment resistance, were assessed in vitro using a 3D micro-epidermis model. […] The drug impact was assessed by analysis of tissue size and keratinocyte proliferation using Ki-67 staining and keratinocyte differentiation using filaggrin, desmoglein-1 and involucrin staining.
Size of the epidermis and the expression of the protein junction desmoglein-1 (DSG1), involucrin (IVL) and filaggrin (FLG) was assessed by immunostaining and compared to untreated control. […]

filaggrin (FLG) = experiment: 3D micro-epidermis model (EpiScreen): filaggrin immunostaining; assay type: cell-based, human;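 also: human primary epidermal keratinocytes differentiated in high calcium into 3D micro-epidermises, compound-treated for three days, imaged by confocal high-content microscopy, filaggrin staining intensity quantified within actin-segmented structures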
[1] = tested on: SkinEthic Reconstructed Human Epidermis (RHE); experiment: Skin barrier function: trans-epidermal water loss (TEWL) on reconstructed human epidermis; assay type: cell-based; conditions: day 7; SDS 0.5% topical; afatinib 100 nM in the media
Protocol: The effect of drugs on the skin barrier function was assessed by measuring trans-epidermal water loss (TEWL) rates on SkinEthicTM Reconstructed Human Epidermis (RHE) model (Episkin, Lyon, France) using Tewitro® TW 24 (Courage+Khazaka electronic GmbH, Köln, Germany). This instrument allows 24 simultaneous measurements on RHE. TEWL was analyzed at 33° C. in an incubator. […] Petrolatum, a highly hydrophobic hydrocarbon, water-repelling and insoluble in water was used to block water evaporation at the RHE surface (negative control). […] DMSO was used in the same proportion in the vehicle. SkinEthicTM RHE (Episkin, Lyon, France), is an in vitro reconstructed human epidermis from normal human keratinocytes cultured on an inert polycarbonate filter at the air-liquid interface, in a chemically defined medium. This model exists at different stages of maturity. This model is histologically similar to in vivo human epidermis. See […].com/SkinEthic%20RHE. The Tewitro® TW 24 is a device that measures water evaporation from cultured tissue sets (wells in a plate with medium) in up to 24 wells simultaneously. See https://www.courage-[…].

[2] = cited from earlier work
[3] = most frequent cutaneous adverse reaction reported by the FDA Adverse Event Reporting System; cited from earlier work
[4] = concentration (afatinib 3, 10, 30 nM; pan-kinase inhibitors 100 nM)

## CN(C)C/C=C/C(=O)Nc1cc2c(Nc3ccc(F)c(Cl)c3)ncnc2cc1O[C@H]1CCOC1 [Afatinib]
desmoglein-1 (DSG1); 3 nM, supplementary data
  DSG 3 nM: 38%
desmoglein-1 (DSG1); 30 nM, supplementary data
  DSG 30 nM: 87%
desmoglein-1 (DSG1); Homo sapiens, 72 h, 10 nM, supplementary data, read-out: DSG 10 nM
  activation at 0.01 µM: 67%
desmoglein-1 (DSG1); Table 1 summary
  DSG-1 expression: Increased
desmoglein-1 (DSG1); [4]
  desmoglein-1 expression: significantly increased; also recorded: increased in a dose-dependent manner
Involucrin (IVL); 30 nM, supplementary data
  IVL 30 nM: 12%
Involucrin (IVL); Homo sapiens, 72 h, 100 nM, supplementary data, two runs, Tox = toxic
  activation at 0.1 µM: 16%
Involucrin (IVL); Homo sapiens, 72 h, 1 μM, supplementary data, two runs, Tox = toxic
  activation at 1 µM: 27%
Involucrin (IVL); Table 1 summary
  IVL expression: Increased
Involucrin (IVL); [4]
  involucrin expression: significantly increased; also recorded: increased in a dose-dependent manner
Filaggrin (FLG); 3 nM, supplementary data
  FLG 3 nM: 4%
Filaggrin (FLG); 30 nM, supplementary data
  FLG 30 nM: 19%
Filaggrin (FLG); Homo sapiens, 72 h, 10 nM, supplementary data, two runs, read-out: FLG 10 nM
  activation at 0.01 µM: 12%
Filaggrin (FLG); Table 1 summary
  FLG expression: Increased
Filaggrin (FLG); concentration (afatinib 10 and 30 nM; pan-kinase inhibitors 100 nM)
  filaggrin expression: significantly increased; also recorded: increased in a dose-dependent manner
[1]
  increase of the TEWL rate: no significant change
[2]; maximal plasma concentration after a single daily-recommended dose, human
  Cmax: 32 nM
[2]; unbound plasma concentration, identified or calculated from Cmax and unbound fraction
  Unbound concentration: 1.6 nM
[2]; unbound to plasma protein
  Unbound fraction: 5%*
[3]
  Major Skin Effect: Rash
